Experimental data published in US7531575B2, “Method of modulating cellular activity and agents useful for same” (Eberhard-Karls-Universität Tübingin, priority 2002, dated 2009).

What was measured:
Assay type in all cases: cell-based, murine
[1] = test system: iNOS mRNA; assay: iNOS mRNA Northern blot, LPS-stimulated N9 microglia; details: N9 cells, LPS 10 μg/mL, TNL 300 μM pretreatment 1 hr
Description: (§1) TNL was a generous gift of Kissei Pharmaceuticals, LPC (Escherichia coli, 0127:BS), phorbol 12-myristate 13-acetate (PMA) and dexamethasone (DEX) were obtained from Sigma, BAY 11-7082 (BAY), NF-κB SN50 inhibitory peptide (SN50), GF 109203X (GFX) and rottlerin (ROT) were purchased from Biomol. PD098059 (PD) was obtained from Calbiochem. Purified murine interferon-γ (IFN-γ) was purchased from Roche Diagnostics. N9 murine microglial cells were a kind gift from P. Ricciardi-Castagnoli (Righi, M. et al. 1989 supra). Cells were cultured in Dulbecco's modified Eagle's medium (DMEM) supplemented with 10% fetal calf serum (FCS), 2 mM glutamine, penicillin (100 unit/mL) and streptomycin (100 μg/mL) and maintained at 37° in an atmosphere of 5% CO2. Viability was assessed by crystal violet staining.
RNA was isolated using the RNeasy™ kit (Qiagen). Total RNA (10 μg) was separated on 1.2% agarose gels and blotted onto nylon membranes (Amersham). The filters were hybridized according to standard procedures with a ^32P-labeled murine cDNA probe for iNOS. For the generation of the iNOS probe, N9 cells were stimulated with IFN-γ (200 unit/mL) for 24 hr. […]

[2] = test system: iNOS; assay: iNOS activity by Griess assay (nitrite formation), LPS-stimulated N9 microglia; details: N9 cells, LPS 10 μg/mL, 48 hr, concentration series
Description: as §1
iNOS activity was assessed by the Griess assay (Platten, M., Wick, W., Wischhusen, J. and Weller, M. Br J Pharmacol 134(6):1279-1284, 2001). Briefly, conditioned supernatant was incubated with an equal volume of Griess reagent containing 1% sulphanilamide, 0.1% naphthylethylenediamine dihydrochloride and 2.5% H3PO4 (Green, L. C., Wagner, D. A., Glogowski, J., Skipper, P. I., Wishnok, J. S, and Tannenbaum, S. R. Anal. Biochem., 126:131-138, 1982) for 5 min. at room temperature. The absorbance was measured at 546 nm. NaNO2 diluted in DMEM served as a standard. To control for cell number, the cells were stained with crystal violet. iNOS activity is expressed as nitrite accumulated in 48 hr/10^5 cells.

[3] = test system: IκBα; assay: phospho-IκBα immunoblot, IFN-γ-stimulated N9 microglia; details: N9 cells, IFN-γ 200 u ml, tranilast 30-300 μM, 4 h preincubation
Experimental: (§2) Tranilast was a generous gift of Kissei Pharmaceuticals (Nagano, Japan). Murine recombinant IFN-γ was purchased from Boehringer (Mannheim, Germany). Dexamethasone (DEX) was obtained from Sigma (Deisenhofen, Germany). N9 murine microglial cells were a kind gift from P. Ricciardi-Castagnoli (Milano, Italy) (Righi, M., Mori, L., De Libero, G., Sironi, M., Biondi, A., Mantovani, A., Donini, S. D. and Ricciardi-Castagnoli, P. Eur J Immunol 19(8):1443-1448, 1989). The cells were cultured in Dulbecco's modified Eagle's medium (DMEM) supplemented with 10% foetal calf serum (FCS), 2 mM glutamine and penicillin ([…])/streptomycin (100 μg ml), and maintained at 37° C. in an atmosphere of 5% CO2. Viability was assessed by crystal violet staining.
(§3) For the preparation of whole cell lysates, the cells were rinsed in phosphate-buffered saline (PBS), harvested, centrifuged at 1200×g, lysed in 0.1 M TRIS-HCl (pH 7.2) containing 0.1% NP40, 0.1 mM EDTA and 5 μg ml PMSF for 40 min on ice, and centrifuged at 10,000×g for 10 min. Protein concentration was determined using Biorad reagents with photometric analysis. Proteins (20 μg lane) were separated by 10-12% SDS-PAGE and electroblotted on nitrocellulose. qual protein loading was controlled by Ponceau S staining. […]

[4] = test system: ERK-2; assay: phospho-ERK-1/2 immunoblot, LPS-stimulated N9 microglia: ERK-2; details: N9 cells, LPS 10 μg/mL 10 min
Description: as §1
(§4) For the preparation of whole cell lysates, the cells were lysed in 0.1 M Tris-HCl (pH 7.2) containing 0.1% NP40, 0.1 mM EDTA and 5 μg/mL phenylmethylsulphonyl fluoride. Twenty micrograms protein was separated by 10-12% SDS-PAGE and electroblotted on nitrocellulose membrane. Equal loading was controlled by Ponceau S staining. […]

[5] = test system: ERK-1; assay: phospho-ERK-1/2 immunoblot, LPS-stimulated N9 microglia: ERK-1; details: N9 cells, LPS 10 μg/mL 10 min, TNL pre-incubation 1 hr
Description: as §1, §4

[6] = test system: p38 MAPK; assay: phospho-p38 immunoblot, LPS-stimulated N9 microglia; details: N9 cells, LPS 10 μg/mL 10 min, TNL pre-incubation 1 hr
Description: as §1, §4

[7] = test system: iNOS; assay: iNOS protein immunoblot, IFN-γ-stimulated N9 microglia; details: N9 cells, IFN-γ 200 u ml, 24 h, tranilast 300 μM
Experimental: as §2, §3

COc1ccc(/C=C/C(=O)Nc2ccccc2C(=O)O)cc1OC [tranilast, 2-[[3-(3,4-dimethoxyphenyl)-1-oxo-2-propenyl]amino]benzoic acid]
LPS induction of iNOS mRNA ([1]; 4 and 8 hr): unaffected
LPS induction of iNOS mRNA ([1]; 16 hr): no further increase
nitrite formation after LPS [2]: concentration-dependent decrease
IκB phosphorylation in response to IFN-γ [3]: concentration-dependent suppression
reduction of phospho-ERK-2 (densitometry) ([4]; 300 μM TNL): 80%
ERK-2 phosphorylation after LPS ([4]; TNL pre-incubation 1 hr, concentration series): concentration-dependent inhibition
phospho-ERK-1 protein level after LPS [5]: remained unchanged
cellular phospho-p38 levels after LPS [6]: did not alter
IFN-γ-induced iNOS protein expression [7]: greatly suppressed
